# Data taken from patent US20160046570A1, “N-ACYLOXYSULFONAMIDE AND N-HYDROXY-N-ACYLSULFONAMIDE DERIVATIVES” (The Johns Hopkins University, priority 2009, published 2016).
# What was measured:
# esterase = test: HNO production via N2O quantification (GC headspace), PBS buffer pH 7.4 with added esterase; type: in vitro ADME; conditions: pH 7.4 with 2-4 mg added esterase, 37° C. under argon, relative to Angeli's salt, N2O measured at 1 hr
# Procedure: (§1) Nitrous oxide is produced via the dimerization and dehydration of HNO, and is the most common marker for HNO production (Fukuto, J. M. et al., Chem. Res. Toxicol. 2005, 18, 790-801).
# (§2) The ability of compounds to donate HNO is assessed. N2O results are reported relative to Angeli's salt. All decompositions are carried out at 37° C. under argon.
# [1] = HNO production via N2O quantification (GC headspace), PBS buffer pH 7.4; type: physicochemical; conditions: pH 7.4, 37° C. under argon, relative to Angeli's salt
# Procedure: as §1, §2
Structure (SMILES),% N2O esterase (esterase),% N2O pH 7.4 ([1]; N2O measured at 5 hr),% N2O pH 7.4 ([1]; no measurement time printed)
"CC(=O)ONS(=O)(=O)c1ccccc1Br [Compound 2, N-(acetyloxy)-2-bromobenzenesulfonamide]",53 (1 hr) %,<3 (5 hr) %,–
"O=C(c1ccccc1)N(O)S(=O)(=O)c1ccccc1 [Compound 15, N-hydroxy-N-benzoyl- benzenesulfonamide]",–,–,19%
"CC(C)(C)C(=O)N(O)S(=O)(=O)c1c(Cl)cccc1Cl [Compound 16, N-hydroxy-N-trimethylacetyl-2,6-dichlorobenzenesulfonamide]",–,–,41%
"CC(=O)ONS(=O)(=O)c1c(Cl)cccc1Cl [Compound 3, N-acetyloxy-2,6-dichlorobenzenesulfonamide]",56 (1 hr) %,<3 (5 hr) %,–
